Source: PubChem BioAssay AID256 (DTP/NCI, 2004)
Where “and” joins values, the source holds several entries; their conditions need not be identical. Equal entries are not always repeated. Toxic doses and inconclusive results are not listed. Residues, ends and D or L forms follow the SMILES beside them. *: point of attachment. Cbz = O=C(OCc1ccccc1)*

Tested on: CD2F1 mice, L1210 leukemia ip, survival T/C
Experiment: NCI In Vivo Anticancer Drug Screen. Data for tumor model L1210 Leukemia (intraperitoneal) in CD2F1 (CDF1) mice
Details: higher = longer survival
Method in brief: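 Activity against a transplanted murine tumor was judged by comparing the compound group with a vehicle group. The outcome in the treated animals was divided by that in the controls.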

[1] = endpoint: mean survival time, dose: 100.0 mg/kg/injection, schedule: Q04DX003 (ip), vehicle: saline with Tween-80
[2] = endpoint: mean survival time, dose: 200.0 mg/kg/injection, schedule: Q04DX003 (ip), vehicle: saline with Tween-80
[3] = endpoint: mean survival time, dose: 400.0 mg/kg/injection, schedule: Q04DX003 (ip), vehicle: saline with Tween-80
[4] = endpoint: mean survival time, dose: 100.0 mg/kg/injection, schedule: Q01DX009 (ip), vehicle: saline with Tween-80
[5] = endpoint: mean survival time, dose: 200.0 mg/kg/injection, schedule: Q01DX009 (ip), vehicle: saline with Tween-80
[6] = endpoint: mean survival time, dose: 400.0 mg/kg/injection, schedule: Q01DX009 (ip), vehicle: saline with Tween-80
[7] = endpoint: mean survival time, dose: 100.0 mg/kg/injection, schedule: Q04DX002 (ip), vehicle: saline with Tween-80
[8] = endpoint: mean survival time, dose: 200.0 mg/kg/injection, schedule: Q04DX002 (ip), vehicle: saline with Tween-80
[9] = endpoint: mean survival time, dose: 400.0 mg/kg/injection, schedule: Q04DX002 (ip), vehicle: saline with Tween-80
[10] = endpoint: mean survival time, dose: 12.5 mg/kg/injection, schedule: Q01DX005 (ip), vehicle: water
[11] = endpoint: mean survival time, dose: 25.0 mg/kg/injection, schedule: Q01DX005 (ip), vehicle: water
[12] = endpoint: mean survival time, dose: 50.0 mg/kg/injection, schedule: Q01DX009 (ip), vehicle: saline with Tween-80

COc1ccc(CCNC(=O)Cc2cc(OC)c(OC)cc2Br)cc1OC
T/C [1]: 94 % of control
T/C [2]: 100 % of control
T/C [3]: 96 % of control

O=C(CC(O)(C(F)(F)F)C(F)(F)F)c1ccccc1Cl
T/C [4]: 100 % of control
T/C [5]: 115 % of control
T/C [6]: 107 % of control

Clc1nc(Cl)nc(-c2cccn2-c2ccccc2)n1
T/C [4]: 93 % of control
T/C [1]: 102 % of control
T/C [2]: 108 % of control
T/C [3]: 115 % of control

CCCN1C(=O)C2C3CCC(O3)C2C1=O (stereo unspecified)
T/C [7]: 95 % of control
T/C [8]: 106 % of control
T/C [9]: 102 % of control

O=C(O)CCn1ccccc1=O
T/C [4]: 94 % of control
T/C [1]: 95 % of control
T/C [5]: 93 % of control
T/C [2]: 96 % of control
T/C [6]: 94 % of control
T/C [3]: 95 % of control

CCN(CC)CCN(C)C(=O)C(O)(c1ccccc1)c1ccccc1
T/C (endpoint: mean survival time, dose: 75.0 mg/kg/injection, schedule: Q01DX001 (ip), vehicle: saline): 100 % of control
T/C (endpoint: mean survival time, dose: 150.0 mg/kg/injection, schedule: Q01DX001 (ip), vehicle: saline): 103 % of control
T/C (endpoint: mean survival time, dose: 300.0 mg/kg/injection, schedule: Q01DX001 (ip), vehicle: saline): 102 % of control

O=C([O-])C1OC([n+]2ccccc2)C(O)C(O)C1O (stereo unspecified)
T/C (endpoint: median survival time, dose: 12.5 mg/kg/injection, schedule: Q01DX005 (ip), vehicle: saline): 101 % of control
T/C (endpoint: median survival time, dose: 25.0 mg/kg/injection, schedule: Q01DX005 (ip), vehicle: saline): 100 % of control
T/C (endpoint: median survival time, dose: 50.0 mg/kg/injection, schedule: Q01DX005 (ip), vehicle: saline): 107 % of control
T/C (endpoint: median survival time, dose: 100.0 mg/kg/injection, schedule: Q01DX005 (ip), vehicle: saline): 112 % of control
T/C (endpoint: median survival time, dose: 200.0 mg/kg/injection, schedule: Q01DX005 (ip), vehicle: saline): 102 % of control

COC(=O)c1ncn(C2OC(COC(C)=O)C(OC(C)=O)C2OC(C)=O)c1C(=O)OC (stereo unspecified)
T/C [10]: 87 % of control
T/C [11]: 94 % of control
T/C (endpoint: mean survival time, dose: 50.0 mg/kg/injection, schedule: Q01DX005 (ip), vehicle: water): 90 % of control
T/C (endpoint: mean survival time, dose: 100.0 mg/kg/injection, schedule: Q01DX005 (ip), vehicle: water): 100 % of control
T/C (endpoint: mean survival time, dose: 200.0 mg/kg/injection, schedule: Q01DX005 (ip), vehicle: water): 96 % of control

O=C(c1ccc(-c2ccccc2)cc1)C1CCCCC1
T/C [4]: 94 % of control
T/C [5]: 97 % of control
T/C [6]: 86 % of control

CC(C)CC(NC(=O)C(C)NC(=O)OCc1ccccc1)C(N)=O (stereo not drawn) (Cbz-Ala-Leu-NH2; configuration not given here)
T/C [4]: 89 % of control

CC(=O)Nc1ccc(/C=N\NC(=O)C2CC2)cc1
T/C [1]: 93 % of control
T/C [2]: 96 % of control
T/C [3]: 93 % of control

Nc1c(-c2ncc[nH]2)ncn1CC(O)C(O)C(O)CO (stereo unspecified)
T/C (endpoint: mean survival time, dose: 12.5 mg/kg/injection, schedule: Q01DX005 (ip), vehicle: saline with Tween-80): 98 % of control
T/C (endpoint: mean survival time, dose: 25.0 mg/kg/injection, schedule: Q01DX005 (ip), vehicle: saline with Tween-80): 101 % of control
T/C (endpoint: mean survival time, dose: 50.0 mg/kg/injection, schedule: Q01DX005 (ip), vehicle: saline with Tween-80): 103 % of control
T/C (endpoint: mean survival time, dose: 100.0 mg/kg/injection, schedule: Q01DX005 (ip), vehicle: saline with Tween-80): 92 % of control
T/C (endpoint: mean survival time, dose: 200.0 mg/kg/injection, schedule: Q01DX005 (ip), vehicle: saline with Tween-80): 98 % of control

O=C1CCC(=O)O1
T/C [4]: 95 % of control
T/C [5]: 102 % of control

CC(C)(CO)CN1CCCCC1
T/C [1]: 101 % of control
T/C [2]: 93 % of control

O=[N+]([O-])c1ccc(C2=CSc3ccccc3N2)cc1
T/C [7]: 104 % of control
T/C [8]: 108 % of control
T/C [9]: 104 % of control

CCN(CC)c1cc(Nc2c3ccc(Cl)cc3nc3cc(Cl)ccc23)ccc1O
T/C [4]: 102 % of control
T/C [1]: 97 % of control
T/C [5]: 104 % of control
T/C [2]: 100 % of control
T/C [3]: 117 % of control

O=C(Nc1ccc(C2=NCCN2)cc1)c1ccc(C(=O)Nc2ccc(C3=NCCN3)cc2)c(Cl)c1
T/C (endpoint: mean survival time, dose: 0.78 mg/kg/injection, schedule: Q01DX009 (ip), vehicle: saline with Tween-80): 104 % of control
T/C (endpoint: mean survival time, dose: 1.56 mg/kg/injection, schedule: Q01DX009 (ip), vehicle: saline with Tween-80): 104 % of control and 110 % of control and 114 % of control
T/C (endpoint: mean survival time, dose: 2.5 mg/kg/injection, schedule: Q01DX009 (ip), vehicle: saline): 110 % of control
T/C (endpoint: mean survival time, dose: 5.0 mg/kg/injection, schedule: Q01DX009 (ip), vehicle: saline): 110 % of control
T/C (endpoint: mean survival time, dose: 8.0 mg/kg/injection, schedule: Q01DX008 (iv), vehicle: water): 104 % of control
T/C (endpoint: mean survival time, dose: 12.5 mg/kg/injection, schedule: Q01DX009 (ip), vehicle: saline with Tween-80): 203 % of control
T/C (endpoint: mean survival time, dose: 20.0 mg/kg/injection, schedule: Q01DX009 (ip), vehicle: saline): 179 % of control
T/C (endpoint: mean survival time, dose: 25.0 mg/kg/injection, schedule: Q01DX009 (ip), vehicle: saline with Tween-80): 250 % of control
T/C (endpoint: mean survival time, dose: 40.0 mg/kg/injection, schedule: Q01DX009 (ip), vehicle: saline): 234 % of control
T/C [12]: 86 % of control and 92 % of control
T/C (endpoint: median survival time, dose: 10.0 mg/kg/injection, schedule: Q04DX003 (ip), vehicle: saline with Tween-80): 113 % of control
T/C (endpoint: median survival time, dose: 40.0 mg/kg/injection, schedule: Q04DX003 (ip), vehicle: saline with Tween-80): 162 % of control
T/C (endpoint: median survival time, dose: 80.0 mg/kg/injection, schedule: Q04DX003 (ip), vehicle: saline with Tween-80): 228 % of control

CCCC(=O)c1cccc([N+](=O)[O-])c1
T/C (endpoint: mean survival time, dose: 100.0 mg/kg/injection, schedule: Q01DX001 (ip), vehicle: other): 96 % of control
T/C (endpoint: mean survival time, dose: 100.0 mg/kg/injection, schedule: Q04DX002 (ip), vehicle: other): 98 % of control
T/C (endpoint: mean survival time, dose: 100.0 mg/kg/injection, schedule: Q04DX003 (ip), vehicle: other): 103 % of control
T/C (endpoint: mean survival time, dose: 200.0 mg/kg/injection, schedule: Q01DX001 (ip), vehicle: other): 93 % of control
T/C (endpoint: mean survival time, dose: 200.0 mg/kg/injection, schedule: Q04DX002 (ip), vehicle: other): 100 % of control
T/C (endpoint: mean survival time, dose: 200.0 mg/kg/injection, schedule: Q04DX003 (ip), vehicle: other): 100 % of control
T/C (endpoint: mean survival time, dose: 400.0 mg/kg/injection, schedule: Q01DX001 (ip), vehicle: other): 94 % of control
T/C (endpoint: mean survival time, dose: 400.0 mg/kg/injection, schedule: Q04DX002 (ip), vehicle: other): 98 % of control
T/C (endpoint: mean survival time, dose: 400.0 mg/kg/injection, schedule: Q04DX003 (ip), vehicle: other): 101 % of control
T/C (endpoint: mean survival time, dose: 800.0 mg/kg/injection, schedule: Q01DX009 (ip), vehicle: other): 91 % of control and 94 % of control and 95 % of control

CCCc1ccc(OC)cc1
T/C [12]: 103 % of control
T/C [4]: 97 % of control
T/C [1]: 98 % of control
T/C [2]: 94 % of control

CO[C@@]12[C@@H]3N[C@@H]3CN1C1=C(C(=O)C(N3CCCC3)=C(C)C1=O)[C@@H]2COC(N)=O
T/C (endpoint: median survival time, dose: 3.12 mg/kg/injection, schedule: Q01DX001 (ip), vehicle: saline with Tween-80): 165 % of control
T/C (endpoint: median survival time, dose: 6.26 mg/kg/injection, schedule: Q01DX001 (ip), vehicle: saline with Tween-80): 151 % of control
T/C (endpoint: median survival time, dose: 12.0 mg/kg/injection, schedule: Q01DX001 (ip), vehicle: saline with Tween-80): 152 % of control and 197 % of control
T/C (endpoint: median survival time, dose: 12.5 mg/kg/injection, schedule: Q01DX001 (ip), vehicle: saline with Tween-80): 370 % of control
T/C (endpoint: median survival time, dose: 24.0 mg/kg/injection, schedule: Q01DX001 (ip), vehicle: saline with Tween-80): 171 % of control and 326 % of control
T/C (endpoint: median survival time, dose: 25.0 mg/kg/injection, schedule: Q01DX001 (ip), vehicle: saline with Tween-80): 111 % of control
T/C (endpoint: median survival time, dose: 50.0 mg/kg/injection, schedule: Q01DX001 (ip), vehicle: saline with Tween-80): 91 % of control

COc1cc(OC)c2c(O)c3c(c(-c4ccc5cc6c(c(O)c5c4O)C(=O)CC(C)(O)C6)c2c1)CC(C)OC3C (stereo unspecified)
T/C (endpoint: mean survival time, dose: 0.5 mg/kg/injection, schedule: Q01DX009 (ip), vehicle: Klucel (hydroxypropylcellulose) (HPC)): 103 % of control
T/C (endpoint: mean survival time, dose: 1.0 mg/kg/injection, schedule: Q01DX009 (ip), vehicle: Klucel (hydroxypropylcellulose) (HPC)): 100 % of control
T/C (endpoint: mean survival time, dose: 2.0 mg/kg/injection, schedule: Q01DX009 (ip), vehicle: Klucel (hydroxypropylcellulose) (HPC)): 103 % of control

N#CC1CC(c2cccs2)Nc2ccccc2N1 (stereo unspecified)
T/C [1]: 94 % of control
T/C [2]: 90 % of control
T/C [3]: 100 % of control

CC1=C2C(=CC(C)(CO)C2O)C(O)C(C)(O)C12CC2 (stereo unspecified)
T/C (endpoint: mean survival time, dose: 1.56 mg/kg/injection, schedule: Q01DX005 (ip), vehicle: water): 94 % of control
T/C (endpoint: mean survival time, dose: 3.13 mg/kg/injection, schedule: Q01DX005 (ip), vehicle: water): 87 % of control
T/C (endpoint: mean survival time, dose: 6.25 mg/kg/injection, schedule: Q01DX005 (ip), vehicle: water): 89 % of control
T/C [10]: 94 % of control
T/C [11]: 100 % of control
